According to patent publication US4990499A, “Anti-herpes simplex virus activity of 5-alkoxymethyl-2'-deoxycytidimes and their 5-monophosphates” (priority 1989, dated 1991):

What was measured:
[1] = test system: Herpes simplex virus type 1 (HSV-1); assay: Antiviral activity against HSV-1, viral plaque reduction (ED50); type: cell-based; conditions: FIG. 13; deoxyguanosine with MMdCyd
Experimental: Infected cells were treated with different concentrations of MMdCyd and the concentration required to reduce viral plaque formation by 50%, i.e. ED50, was determined.
^a ED50 : Concentration required to reduce viral plaque formatio
Vero cells were infected with the KOS strain of HSV-1. The compound of compounds indicated in Table 2, below, and are shown graphically in FIGS. 1, (H4 dUrd) and 2 (H4 Urd).
^a Antiviral assays were carried out using Vero cells. All compounds
were added immediately after virus infection.
The antiviral activity of MMdCyd in the presence of H4 dUrd was determined against several strains of HSV-1 and HSV-2.
Vero cells were infected with HSV-1, strain 76 and treated with MMdCyd at different times post virus infection.
The antiviral activity, ^a cyctotoxicity* and antiviral indices of MMdCyd in the presence of H4 dUrd, dGuo and H4 dUrd+dGuo were determined.
^a Antiviral assays were carried out using Vero cells. Compounds were
added immediately after virus infection. Virus HSV1, strains KOS and 76;
KOS, virus input = 50 PFU

[2] = test system: Deoxynucleoside Triphosphate (dNTP) Pools in Uninfected Vero Cells; assay: Deoxynucleoside triphosphate (dNTP) pools in uninfected (mock-infected) Vero cells; type: cell-based; conditions: Table 10, uninfected
Experimental: Vero cells were treated with MMdCyd, H4 dUrd and MMdCyd+H4 dUrd. The cells were then assayed for the presence of deoxynucleoside triphosphates. Untreated Vero cells were also assayed for the presence of deoxynucleoside triphosphates, to provide a control.
^a Cells were mock infected for one hour. Different treatments were
^b Values are means of at least two assays of triplicate cell
(§1) Vero cells and HSV-infected Vero cells were treated with dGUO and dGUO and H4 dUrd. The cells were then assayed for the presence of deoxynucleoside triphosphates. Untreated Vero cells were also assayed for the presence of deoxynucleoside triphophate to provide a control.
Vero cells were treated with N-methyl-MMdCyd. The cells were then assayed for dNTP pools.

[3] = test system: Deoxynucleoside Triphosphate (dNTP) Pools in Vero Cells Infected with Herpes Simplex Virus Type 1; assay: Deoxynucleoside triphosphate (dNTP) pools in HSV-1 infected Vero cells; type: cell-based; conditions: Table 10, HSV-infected
Experimental: Example 9 was repeated, except that the Vero cells subjected to the treatment had all been infected with HSV-1 KOS strain prior to the treatment.
^a Cells were infected with 10 PFU/cell of HSV1 KOS strain for one
hour. Treatments were given for seven hours.
^a Cells were infected with 10 PFU/cell of HSV1, KOS strain after
^b H4 dUrd in MEM was added immediately after adsorption and
^c H4 dUrd in MEM was added immediately after adsorption and
as §1
^c Cells were infected with 10 PFU/cell of HSV1 strain KOS for one

[4] = test system: Herpes simplex virus type 1 (HSV-1); assay: Antiviral activity against HSV-1, viral plaque reduction (ED50); type: cell-based; conditions: FIG. 13; HSV-1 KOS and 76, Vero, 20 PFU
[5] = Survival and viability of Vero cells; conditions: monkey, vero cells
Experimental: (§2) The survival and viability of Vero cells grown in the presence of 2'-deoxyguanosine, H4 dUrd and deoxyguanosine+H4 dUrd was determined.

[6] = test system: Vero cells; assay: Survival and viability of Vero cells; conditions: up to 250 μM, rapidly dividing Vero cells
Experimental: as §2

In the case of `Nc1nc2c(ncn2[C@H]2C[C@H](O)[C@@H](CO)O2)c(=O)[nH]1` [dGuo, 2'-deoxyguanosine], the “concentration giving maximal increase in antiherpes activity of MMdCyd” value [1] is reported as 100 µM, the dATP pool ([2]; dGUO 25 μM) is reported as 18 .rho.moles/10^6 cells and the dCTP pool ([2]; dGUO 25 μM) is reported as 13 .rho.moles/10^6 cells. The dGTP pool ([2]; dGUO 25 μM) was 42 .rho.moles/10^6 cells, the dTTP pool ([2]; dGUO 25 μM) was 17 .rho.moles/10^6 cells and the dATP pool ([2]; dGUO 50 μM) was 19 .rho.moles/10^6 cells. The dCTP pool ([2]; dGUO 50 μM) was 9 .rho.moles/10^6 cells, the dGTP pool ([2]; dGUO 50 μM) was 88 .rho.moles/10^6 cells and the dTTP pool ([2]; dGUO 50 μM) was 10 .rho.moles/10^6 cells. For the same molecule, the dATP pool ([2]; dGUO 100 μM) was 19 .rho.moles/10^6 cells, the dCTP pool ([2]; dGUO 100 μM) was 11 .rho.moles/10^6 cells and the dGTP pool ([2]; dGUO 100 μM) was 76 .rho.moles/10^6 cells. The dTTP pool ([2]; dGUO 100 μM) was 13 .rho.moles/10^6 cells, the dATP pool ([2]; dGUO 250 μM) was 29 .rho.moles/10^6 cells and the dCTP pool ([2]; dGUO 250 μM) was 8 .rho.moles/10^6 cells. For the same molecule, the dGTP pool ([2]; dGUO 250 μM) was 102 .rho.moles/10^6 cells, the dTTP pool ([2]; dGUO 250 μM) was 13 .rho.moles/10^6 cells and the dATP pool ([2]; dGUO 500 μM) was 19 .rho.moles/10^6 cells. For the same molecule, the dCTP pool ([2]; dGUO 500 μM) was 7 .rho.moles/10^6 cells, the dGTP pool ([2]; dGUO 500 μM) was 146 .rho.moles/10^6 cells and the dTTP pool ([2]; dGUO 500 μM) was 6 .rho.moles/10^6 cells. The dATP pool ([3]; dGUO 25 μM) was 12 .rho.moles/10^6 cells, the dCTP pool ([3]; dGUO 25 μM) was 23 .rho.moles/10^6 cells and the dGTP pool ([3]; dGUO 25 μM) was 290 .rho.moles/10^6 cells. The dTTP pool ([3]; dGUO 25 μM) was 110 .rho.moles/10^6 cells, the dATP pool ([3]; dGUO 50 μM) was 12 .rho.moles/10^6 cells and the dCTP pool ([3]; dGUO 50 μM) was 33 .rho.moles/10^6 cells. The dGTP pool ([3]; dGUO 50 μM) was 373 .rho.moles/10^6 cells, the dTTP pool ([3]; dGUO 50 μM) was 118 .rho.moles/10^6 cells and the dATP pool ([3]; dGUO 100 μM) was 12 .rho.moles/10^6 cells. The dCTP pool ([3]; dGUO 100 μM) was 64 .rho.moles/10^6 cells, the dGTP pool ([3]; dGUO 100 μM) was 600 .rho.moles/10^6 cells and the dTTP pool ([3]; dGUO 100 μM) was 214 .rho.moles/10^6 cells. The dATP pool ([3]; dGUO 250 μM) was 14 .rho.moles/10^6 cells, the dCTP pool ([3]; dGUO 250 μM) was 78 .rho.moles/10^6 cells and the dGTP pool ([3]; dGUO 250 μM) was 558 .rho.moles/10^6 cells. For the same molecule, the dTTP pool ([3]; dGUO 250 μM) was 233 .rho.moles/10^6 cells, the dATP pool ([3]; dGUO 500 μM) was 25 .rho.moles/10^6 cells and the dCTP pool ([3]; dGUO 500 μM) was 60 .rho.moles/10^6 cells. For the same molecule, the dGTP pool ([3]; dGUO 500 μM) was 738 .rho.moles/10^6 cells, the dTTP pool ([3]; dGUO 500 μM) was 247 .rho.moles/10^6 cells and the “effect on antiviral activity of MMdCyd” value [4] was “markedly potentiated”. It also gave a viability at 25 µM [5] of 100%, a viability at 50 µM [5] of 100% and a viability at 100 µM [5] of 100%. For the same molecule, the viability at 250 µM [5] was 100%, the viability at 500 µM [5] was 88% and the viability at 1000 µM [5] was 63%. For the same molecule, the cytotoxicity [6] was “devoid of cytotoxicity”.
